# Results: US20230151025A1, “SUBSTITUTED THIAZOLOPYRIDINES, SALTS THEREOF AND THEIR USE AS HERBICIDALLY ACTIVE SUBSTANCES” (Bayer Aktiengesellschaft, priority 2020, published 2023)
# Key:
# Type in all cases: in vivo
# [1] = tested on: Abutilon theophrasti (ABUTH); experiment: Herbicidal pre-emergence action (C), 320 g/ha; conditions: ca. 3 weeks
# Outline: (§1)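 Greenhouse pre-emergence trial with compounds sprayed onto soil above sown seeds in sandy loam (aqueous WP or EC, 0.5% additive, 600 l water/ha); effect scored by eye at roughly 3 weeks as percent damage versus controls.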
# [2] = tested on: Alopecurus myosuroides (ALOMY); experiment: Herbicidal pre-emergence action (C), 320 g/ha; conditions: ca. 3 weeks
# Outline: as §1
# [3] = tested on: Amaranthus retroflexus (AMARE); experiment: Herbicidal pre-emergence action (C), 320 g/ha; conditions: ca. 3 weeks
# Outline: as §1
# [4] = tested on: Echinochloa crus-galli (ECHCG); experiment: Herbicidal pre-emergence action (C), 320 g/ha; conditions: ca. 3 weeks
# Outline: as §1
# Lolium rigidum (LOLRI) [5] = experiment: Herbicidal pre-emergence action (C), 320 g/ha; conditions: ca. 3 weeks
# Outline: as §1
# [6] = tested on: Matricaria inodora (MATIN); experiment: Herbicidal pre-emergence action (C), 320 g/ha; conditions: ca. 3 weeks
# Outline: as §1
# [7] = tested on: Polygonum convolvulus (POLCO); experiment: Herbicidal pre-emergence action (C), 320 g/ha; conditions: ca. 3 weeks
# Outline: as §1
# Setaria viridis (SETVI) [8] = experiment: Herbicidal pre-emergence action (C), 320 g/ha; conditions: ca. 3 weeks
# Outline: as §1
# Stellaria media (STEME) [9] = experiment: Herbicidal pre-emergence action (C), 320 g/ha; conditions: visual grading after ca. 3 weeks vs untreated controls, 100% = plants have died off, 0% = as control plants
# Outline: as §1
# Veronica persica (VERPE) [10] = experiment: Herbicidal pre-emergence action (C), 320 g/ha; conditions: ca. 3 weeks
# Outline: as §1
# Viola tricolor (VIOTR) [11] = experiment: Herbicidal pre-emergence action (C), 320 g/ha; conditions: ca. 3 weeks
# Outline: as §1
# Avena fatua [12] = experiment: Herbicidal pre-emergence action (C), 320 g/ha; conditions: ca. 3 weeks
# Outline: (§2)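 Weed and crop seeds sown in sandy loam; WP or EC formulations applied pre-emergence to the soil surface as aqueous suspension/emulsion with 0.5% additive at 600 l water/ha. Greenhouse-grown under optimum conditions; damage visually scored after ca. 3 weeks versus untreated controls (0% = as control, 100% = plants dead).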
# [13] = tested on: Digitaria sanguinalis (DIGSA); experiment: Herbicidal pre-emergence action (C), 320 g/ha; conditions: ca. 3 weeks
# Outline: as §2
# [14] = tested on: Abutilon theophrasti (ABUTH); experiment: Herbicidal post-emergence action (D), 320 g/ha; conditions: ca. 3 weeks
# Outline: (§3)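 Visual % herbicidal effect vs untreated controls (100% = dead, 0% = like control), rated ca. 3 weeks after post-emergence spray. Plants treated at single-leaf stage, 2 to 3 weeks after sowing in sandy loam; aqueous WP/EC spray, 0.5% additive, 600 l water/ha.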
# [15] = tested on: Alopecurus myosuroides (ALOMY); experiment: Herbicidal post-emergence action (D), 320 g/ha; conditions: ca. 3 weeks
# Outline: as §3
# [16] = tested on: Amaranthus retroflexus (AMARE); experiment: Herbicidal post-emergence action (D), 320 g/ha; conditions: ca. 3 weeks
# Outline: as §3
# [17] = tested on: Echinochloa crus-galli (ECHCG); experiment: Herbicidal post-emergence action (D), 320 g/ha; conditions: ca. 3 weeks
# Outline: as §3
# Lolium rigidum (LOLRI) [18] = experiment: Herbicidal post-emergence action (D), 320 g/ha; conditions: ca. 3 weeks
# Outline: as §3
# [19] = tested on: Matricaria inodora (MATIN); experiment: Herbicidal post-emergence action (D), 320 g/ha; conditions: single-leaf stage, assessed visually after ca. 3 weeks vs untreated controls, 100% = plants have died off, 0% = as control plants
# Outline: as §3
# [20] = tested on: Polygonum convolvulus (POLCO); experiment: Herbicidal post-emergence action (D), 320 g/ha; conditions: ca. 3 weeks
# Outline: as §3
# Setaria viridis (SETVI) [21] = experiment: Herbicidal post-emergence action (D), 320 g/ha; conditions: ca. 3 weeks
# Outline: as §3
# Stellaria media (STEME) [22] = experiment: Herbicidal post-emergence action (D), 320 g/ha; conditions: ca. 3 weeks
# Outline: as §3
# Veronica persica (VERPE) [23] = experiment: Herbicidal post-emergence action (D), 320 g/ha; conditions: ca. 3 weeks
# Outline: as §3
# Viola tricolor (VIOTR) [24] = experiment: Herbicidal post-emergence action (D), 320 g/ha; conditions: ca. 3 weeks
# Outline: as §3
# Avena fatua [25] = experiment: Herbicidal post-emergence action (D), 320 g/ha; conditions: ca. 3 weeks
# Text: (§4) Seeds of mono- and dicotyledonous weed plants and crop plants were sown, in plastic or organic planting pots, in sandy loam, covered with soil and grown in a greenhouse under controlled growth conditions. 2 to 3 weeks after sowing, the test plants were sprayed in the single-leaf stage. The compounds according to the invention, formulated in form of wettable powders (WP) or as emulsifiable concentrates (EC), were sprayed onto the green plant parts as aqueous suspension or emulsion, with the addition of 0.5% of an additive, at an application rate of 600 l of water/ha (converted). The test plants were placed in the greenhouse for ca. 3 weeks under optimum growth conditions, and then the effect of the preparations was assessed visually in comparison with untreated controls (herbicidal effect in percent (%): 100% effect=plants have died off, 0% effect=as control plants).
# (§5) Tables D1 to D13 below show the effects of selected compounds of the general formula (I) according to table 1 on various harmful plants and an application rate corresponding to 320 g/ha obtained by the experimental procedure mentioned above.
# [26] = tested on: Digitaria sanguinalis (DIGSA); experiment: Herbicidal post-emergence action (D), 320 g/ha; conditions: ca. 3 weeks
# Text: as §4, §5
structure (smiles),measurement,setting,value
Cc1cc2scnc2nc1-c1ccccc1F [Example I-002],herbicidal effect ABUTH,[1],90%
same,herbicidal effect ALOMY,[2],100%
same,herbicidal effect AMARE,[3],90%
same,herbicidal effect ECHCG,[4],100%
same,herbicidal effect LOLRI,Lolium rigidum (LOLRI) [5],100%
same,herbicidal effect MATIN,[6],90%
same,herbicidal effect POLCO,[7],90%
same,herbicidal effect SETVI,Setaria viridis (SETVI) [8],100%
same,"STEME, herbicidal effect in percent (%)",Stellaria media (STEME) [9],90%
same,herbicidal effect VERPE,Veronica persica (VERPE) [10],90%
same,herbicidal effect VIOTR,Viola tricolor (VIOTR) [11],80%
same,herbicidal effect AVEFA,Avena fatua [12],100%
same,herbicidal effect DIGSA,[13],100%
same,herbicidal effect ABUTH,[14],80%
same,herbicidal effect ALOMY,[15],90%
same,herbicidal effect AMARE,[16],90%
same,herbicidal effect ECHCG,[17],100%
same,herbicidal effect LOLRI,Lolium rigidum (LOLRI) [18],80%
same,"MATIN, herbicidal effect in percent (%)",[19],80%
same,herbicidal effect POLCO,[20],90%
same,herbicidal effect SETVI,Setaria viridis (SETVI) [21],90%
same,herbicidal effect STEME,Stellaria media (STEME) [22],90%
same,herbicidal effect VERPE,Veronica persica (VERPE) [23],80%
same,herbicidal effect VIOTR,Viola tricolor (VIOTR) [24],80%
same,herbicidal effect AVEFA,Avena fatua [25],80%
same,herbicidal effect DIGSA,[26],90%
